The results in this text go back to ChEMBL document CHEMBL1141969, “2-Cyano-4-fluoro-1-thiovalylpyrrolidine analogues as potent inhibitors of DPP-IV” (Bioorg Med Chem Lett, 2005).

In one data set the target is T1, Prolyl endopeptidase FAP (Homo sapiens, UniProt Q12884).
T1 sequence (Q12884 whole entry): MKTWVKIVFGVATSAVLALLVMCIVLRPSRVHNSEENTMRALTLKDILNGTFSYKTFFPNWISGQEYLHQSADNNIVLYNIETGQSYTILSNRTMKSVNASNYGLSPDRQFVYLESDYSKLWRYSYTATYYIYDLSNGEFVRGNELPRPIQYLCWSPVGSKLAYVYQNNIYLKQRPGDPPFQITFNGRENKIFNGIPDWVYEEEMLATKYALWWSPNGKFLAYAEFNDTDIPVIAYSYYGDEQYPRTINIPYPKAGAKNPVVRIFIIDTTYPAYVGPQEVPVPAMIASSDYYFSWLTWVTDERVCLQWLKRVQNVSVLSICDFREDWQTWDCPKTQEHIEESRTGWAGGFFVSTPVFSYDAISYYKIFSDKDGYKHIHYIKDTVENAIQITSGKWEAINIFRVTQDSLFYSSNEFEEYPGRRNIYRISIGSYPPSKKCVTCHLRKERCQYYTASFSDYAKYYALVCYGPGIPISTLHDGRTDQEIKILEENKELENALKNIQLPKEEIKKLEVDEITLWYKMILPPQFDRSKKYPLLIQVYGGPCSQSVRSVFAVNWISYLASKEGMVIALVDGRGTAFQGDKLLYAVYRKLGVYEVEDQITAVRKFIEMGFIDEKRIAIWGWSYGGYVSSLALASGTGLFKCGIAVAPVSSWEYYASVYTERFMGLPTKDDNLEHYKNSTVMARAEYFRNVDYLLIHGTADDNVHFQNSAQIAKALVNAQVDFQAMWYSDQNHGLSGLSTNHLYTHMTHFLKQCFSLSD
As to the kind of experiment: Inhibitory activity against recombinant seprase.

The target of the next data set is Dipeptidyl peptidase 2 (Homo sapiens, UniProt Q9UHL4). Description: Inhibitory activity against recombinant DPP2.
In the next data set the test system is Canis familiaris. As to the kind of experiment: Gastro-Intestinal toxicity in dog at 10 mg/kg, po. In kind it is organism-based, Canis lupus familiaris. The arrangement: dose 10 mg/kg, route oral. Conditions: in vivo.
The nature of data set [1]: Oral bioavailability in rat, po. In kind it is ADME, organism-based. Particulars: in vivo.
A short description of data set [2]: Half life cyclization at 37 C, pH 7.2. The data set is classed as ADME.
Data set [3] in a line: Oral bioavailability in dog. Particulars: in vivo. The data set is classed as ADME, organism-based, Canis lupus familiaris.
A short description of data set [4]: Half life in dog. The data set is classed as ADME, organism-based, Canis lupus familiaris. Conditions: in vivo.
For another data set, the species on record is Homo sapiens. As to the kind of experiment: Inhibition of cytochrome P450.
Data set [5] is described as follows: Oral bioavailability in rat. The data set is classed as ADME, organism-based. Particulars: in vivo.
The nature of data set [6]: Half life in rat. Particulars: in vivo. The data set is classed as ADME, organism-based.

In the case of `CC(C)(SCCc1ccccc1)[C@H](N)C(=O)N1C[C@@H](F)C[C@H]1C#N`, the inhibition constant (Ki) at Prolyl endopeptidase FAP was over 23.4 µM. As to `COc1cccc(CS(=O)(=O)C(C)(C)[C@H](N)C(=O)N2C[C@@H](F)C[C@H]2C#N)c1`, on Dipeptidyl peptidase 2, the inhibitory constant (Ki) is over 22.4 µM. In the case of `CC(C)([C@H](N)C(=O)N1C[C@@H](F)C[C@H]1C#N)S(=O)(=O)Cc1csc2ccc(Cl)cc12`, the inhibition constant (Ki) at Dipeptidyl peptidase 2 was over 22.4 µM. Same read-out and setting: under `CC(C)([C@H](N)C(=O)N1C[C@@H](F)C[C@H]1C#N)S(=O)(=O)Cc1ccc(-c2ccccc2)cc1` stands over 22.4 µM. For `CC(C)([C@H](N)C(=O)N1C[C@@H](F)C[C@H]1C#N)S(=O)(=O)Cc1ccncc1`, the Ki at Dipeptidyl peptidase 2 was over 22.4 µM; at Prolyl endopeptidase FAP, over 23.4 µM. In the case of `CC(C)([C@H](N)C(=O)N1C[C@@H](F)C[C@H]1C#N)S(=O)(=O)CCCc1ccccc1`, the Ki on Dipeptidyl peptidase 2 was over 22.4 µM; on Prolyl endopeptidase FAP, over 23.4 µM.

For the molecule `CC(C)(SCc1cccnc1)[C@H](N)C(=O)N1C[C@@H](F)C[C@H]1C#N`, the Ki on Dipeptidyl peptidase 2 was over 22.4 µM; at Prolyl endopeptidase FAP, over 23.4 µM. Taken in the same sequence, the figures for `COc1ccc(C[S+]([O-])C(C)(C)[C@H](N)C(=O)N2C[C@@H](F)C[C@H]2C#N)cc1` (stereo partly drawn) were over 22.4 µM and over 23.4 µM. Consider `CC(C)([C@H](N)C(=O)N1C[C@@H](F)C[C@H]1C#N)S(=O)(=O)Cc1ccccc1`, for which the inhibition constant (Ki) on Dipeptidyl peptidase 2 is over 22.4 µM; on Prolyl endopeptidase FAP it was over 23.4 µM. Regarding `CC(C)([C@H](N)C(=O)N1C[C@@H](F)C[C@H]1C#N)S(=O)(=O)O`, the Ki on Dipeptidyl peptidase 2 was over 22.4 µM. On to `CC(C)(SCc1ccncc1)[C@H](N)C(=O)N1C[C@@H](F)C[C@H]1C#N`, for which the Ki on Dipeptidyl peptidase 2 is over 22.4 µM. `CC(=O)Nc1ccc(CS(=O)(=O)C(C)(C)[C@H](N)C(=O)N2C[C@@H](F)C[C@H]2C#N)cc1`: the Ki at Dipeptidyl peptidase 2 was over 22.4 µM. With `CC(C)([C@H](N)C(=O)N1C[C@@H](F)C[C@H]1C#N)S(=O)(=O)Cc1ccc(F)cc1`, the results for the Ki on Dipeptidyl peptidase 2 and at Prolyl endopeptidase FAP were over 22.4 µM and over 23.4 µM, respectively.

In the case of `CC(C)([C@H](N)C(=O)N1C[C@@H](F)C[C@H]1C#N)S(=O)(=O)Cc1ccc(C#N)cc1`, in the data set with Canis familiaris, the Activity entry was “Toxic”. Also, the Ki at Dipeptidyl peptidase 2 was over 22.4 µM.

As for `CC(C)([C@H](N)C(=O)N1C[C@@H](F)C[C@H]1C#N)S(=O)(=O)Cc1cccc(Oc2ccccc2)c1`, the Ki at Dipeptidyl peptidase 2 was over 22.4 µM. Consider `Cc1ccc(CS(=O)(=O)C(C)(C)[C@H](N)C(=O)N2C[C@@H](F)C[C@H]2C#N)cc1`, for which the values for the Ki on Dipeptidyl peptidase 2 and at Prolyl endopeptidase FAP were over 22.4 µM and over 23.4 µM, respectively. As for `COc1ccccc1CS(=O)(=O)C(C)(C)[C@H](N)C(=O)N1C[C@@H](F)C[C@H]1C#N`, the Ki at Dipeptidyl peptidase 2 is over 22.4 µM.

As to `CC(C)([C@H](N)C(=O)N1C[C@@H](F)C[C@H]1C#N)S(=O)(=O)Cc1ccc(S(C)(=O)=O)cc1`, in [1], the bioavailability was under 5%. Also, the Ki on Prolyl endopeptidase FAP was over 23.4 µM. On to `COc1ccc(CS(=O)(=O)C(C)(C)[C@H](N)C(=O)N2CCC[C@H]2C#N)cc1`, for which the half-life in [2] was 360 h; in data set [4], 3 h; in data set [6], 4.2 h. Moreover, the bioavailability in data set [3] is 100%; in data set [5], 4%. The molecule further showed an IC50 in the data set listed under Homo sapiens of over 15 µM. Turning to `CC(C)(SCc1ccccn1)[C@H](N)C(=O)N1C[C@@H](F)C[C@H]1C#N`, the inhibitory constant (Ki) on Dipeptidyl peptidase 2 is over 22.4 µM. In the case of `COc1ccc(CS(=O)(=O)C(C)(C)[C@H](N)C(=O)N2C[C@@H](F)C[C@H]2C#N)cc1`, the half-life in data set [4] is 3.9 h; in data set [6], 2.3 h. The molecule further returned an IC50 in the data set filed under Homo sapiens of over 15 µM. Besides, the Ki at Dipeptidyl peptidase 2 was over 22.4 µM; at Prolyl endopeptidase FAP it was over 23.4 µM. In the case of `CC(C)([C@H](N)C(=O)N1C[C@@H](F)C[C@H]1C#N)S(=O)(=O)Cc1ccc(OCc2ccccc2)cc1`, the inhibition constant (Ki) on Dipeptidyl peptidase 2 is over 22.4 µM.

On to `CC(C)(SCc1ccc(C(F)(F)F)cc1)[C@H](N)C(=O)N1C[C@@H](F)C[C@H]1C#N`, for which the Ki at Prolyl endopeptidase FAP is over 23.4 µM. `CC(=O)NCSC(C)(C)[C@H](N)C(=O)N1C[C@@H](F)C[C@H]1C#N`: on Dipeptidyl peptidase 2, the Ki was over 22.4 µM. For the molecule `COc1ccc(CSC(C)(C)[C@H](N)C(=O)N2C[C@@H](F)C[C@H]2C#N)cc1`, the Ki at Prolyl endopeptidase FAP was over 23.4 µM.

As a reminder, the Ki is the equilibrium dissociation constant of an inhibitor or competing ligand from its target. What is called bioavailability is the share of a dose that reaches the circulation, judged against a reference dose that is usually intravenous. Low values mean little systemic uptake, high ones much systemic uptake. By half-life is commonly meant the time needed for the level to fall by half in the phase considered. By IC50 is commonly meant the midpoint of a concentration-inhibition curve. High values mean lower potency, low ones higher potency.
